According to US20210188905A1, “COMBINING BETA-DIPEPTIDES AND AMINO ACIDS FOR OPTIMAL NUTRITIONAL SUPPLEMENTATION” (Cysal GmbH, priority 2018, published 2021):

Legend:
[1] = Oral supplementation of healthy volunteers, levels in whole blood by UPLC-MSMS; type: in vivo, human
Experimental: β-Aspartyl-arginine was administered orally either alone or in combination with arginine, and in varying doses. Levels of dipeptide in blood are then monitored over time. The substance used for the experiments is a white powder of β-aspartyl-arginine. The purity is >99% and was determined by HPLC-analysis.
Experimental procedure: The volunteers were three healthy males (age 41 to 51 years, 173-187 cm height, 80-85 kg weight, BMI around 25 kg/m^2). […] The volunteers fasted throughout the experiment. Blood was collected from the fingertip using a lancet device and blotted onto sample cards and levels of dipeptide and amino acids were determined by UPLC-MSMS by an external service provider (Labor Blessing, Singen Germany).

[2] = oral consumption, human use data; cited from earlier work
[3] = target: T1, Arginase (Bovine) (Bos taurus, UniProt Q2KJ64); test: Hydrolase susceptibility: arginase reaction, HPLC; type: in vitro ADME; conditions: 500 μg per ml, 100 U arginase, 37° C., pH 9.5, FIG. 5/6
T1 construct: purchased Alexis Bio/Sigma ALX-201-081-C020
T1 sequence (Q2KJ64 1-322): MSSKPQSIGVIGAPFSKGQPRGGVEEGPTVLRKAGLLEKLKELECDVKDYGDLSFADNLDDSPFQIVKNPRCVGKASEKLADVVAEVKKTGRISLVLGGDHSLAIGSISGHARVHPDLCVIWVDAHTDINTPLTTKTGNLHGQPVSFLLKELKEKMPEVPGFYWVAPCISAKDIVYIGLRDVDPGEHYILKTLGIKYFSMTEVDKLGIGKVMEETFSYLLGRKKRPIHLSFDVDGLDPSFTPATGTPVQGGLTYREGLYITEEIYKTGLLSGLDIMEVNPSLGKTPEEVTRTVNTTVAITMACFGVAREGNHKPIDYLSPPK
Source text: The release of free amino acids or modified dipeptide after treatment with these enzymes is monitored by HPLC.

[4] = target: T2, Clostripain (Cl. histolyticum) (Hathewaya histolytica, UniProt P09870); test: Hydrolase susceptibility: clostripain, HPLC; type: in vitro ADME; conditions: 500 μg dipeptide per ml, 10 U, 25° C., pH 7.4, 24 h, FIG. 7
T2 construct: purchased Sigma C0888-250UN
T2 sequence (P09870 191-526): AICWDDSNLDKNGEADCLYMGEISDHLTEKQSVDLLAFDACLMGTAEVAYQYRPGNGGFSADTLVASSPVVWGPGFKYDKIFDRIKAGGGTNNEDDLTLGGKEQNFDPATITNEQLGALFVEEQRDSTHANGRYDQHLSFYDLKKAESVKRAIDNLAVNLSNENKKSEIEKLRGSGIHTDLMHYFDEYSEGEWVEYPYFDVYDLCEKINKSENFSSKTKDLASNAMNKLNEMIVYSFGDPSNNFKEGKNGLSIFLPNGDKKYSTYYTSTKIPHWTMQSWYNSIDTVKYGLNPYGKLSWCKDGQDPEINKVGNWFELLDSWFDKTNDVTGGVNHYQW
T2 sequence (P09870 51-181): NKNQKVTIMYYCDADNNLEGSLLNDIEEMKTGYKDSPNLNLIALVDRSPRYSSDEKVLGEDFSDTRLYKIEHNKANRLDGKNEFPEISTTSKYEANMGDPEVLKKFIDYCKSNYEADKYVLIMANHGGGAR
Experimental: (§1) Arginase catalyzes the final step of the urea cycle and converts L-arginine into L-ornithine und urea. The other tested enzymes (proteases) are able to cleave α-peptide bonds involving aspartate and/or arginine. The release of free amino acids or modified dipeptide after treatment with these enzymes is monitored by HPLC. The substance used for the experiments is a white powder of β-L-aspartyl-L-arginine. The purity is >99% and was determined by HPLC-analysis.

[5] = target: T3, Chymotrypsin (Bovine pancreas) (Bos taurus, UniProt P00766); test: Hydrolase susceptibility: chymotrypsin, HPLC; type: in vitro ADME; conditions: 500 μg dipeptide per ml, 150 U, 30° C., pH 7.8, 24 h, FIG. 7
T3 construct: purchased Applichem A4531; host or cells: bovine pancreas
Experimental: as §1

[6] = target: T4, Trypsin (Bovine pancreas) (Bos taurus, UniProt P00760); test: Hydrolase susceptibility: trypsin, HPLC; type: in vitro ADME; conditions: 500 μg dipeptide per ml, 187.5 U, 25° C., pH 7.6, 24 h, FIG. 7
T4 construct: purchased Sigma T1426-50MG; host or cells: bovine pancreas
T4 sequence (P00760 24-246): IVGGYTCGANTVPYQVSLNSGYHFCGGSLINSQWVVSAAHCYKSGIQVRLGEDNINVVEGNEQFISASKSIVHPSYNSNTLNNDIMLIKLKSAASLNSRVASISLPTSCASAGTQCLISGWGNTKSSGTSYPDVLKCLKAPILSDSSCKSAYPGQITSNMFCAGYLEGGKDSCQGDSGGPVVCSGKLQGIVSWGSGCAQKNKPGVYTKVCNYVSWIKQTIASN
Experimental: as §1

[7] = tested on: Endoproteinase ArgC (mouse); test: Hydrolase susceptibility: endoproteinase Arg-C, HPLC; type: in vitro ADME; conditions: 500 μg dipeptide per ml, 37° C., pH 8.5, 24 h, FIG. 7
Experimental: as §1

[8] = tested on: Proteinase N (Bacillus subtilis); test: Hydrolase susceptibility: proteinase N, HPLC; type: in vitro ADME; conditions: 500 μg dipeptide per ml, 28.4 U, 37° C., pH 1-3, 24 h, FIG. 7
Experimental: as §1

[9] = tested on: bovine liver extract (β-aspartyl peptidases); test: Cleavage of β-aspartyl dipeptide by bovine liver extract, HPLC; type: in vitro ADME; conditions: 10 mM dipeptide, 37° C.
Source text: β-aspartyl dipeptides contain an isoaspartyl peptide bond instead of the α bond common in proteins. It is therefore resistant to cleavage by most common proteases and peptidases. While this resistance is an advantage in the gut and in the bloodstream as it prevents cleavage before reaching the target tissue, it does raise the question as to how the dipeptide is introduced into the metabolism. Specific cytoplasmic isoaspartases (also known as β-aspartyl peptidases) have been found in mammalian tissues that are capable of cleaving a large variety of β-aspartyl dipeptides and related compounds. Specificity is towards the β-aspartyl moiety, with the identity of the moiety bound to this residue being of little importance. The overall reaction can be summarized as:
The substance used for the experiments is a white powder of β-L-aspartyl-L-arginine. The purity is >99% and was determined by HPLC-analysis.
Bovine liver purchased from a butcher was chosen as a model due to ready availability. Liver (50 g fresh weight) was homogenized using a Waring blender in four times its volume of ice-cold phosphate-buffered saline. Insoluble material was removed by centrifugation for 15 min at 9,000×g at 4° C. The supernatant (liver extract) was used immediately as a test solution.
Test setup: An aliquot of 900 μl of liver extract in a 1.5-ml polypropylene tube was placed into a heat block at 37° C. and allowed to heat up for 10 min. Then, a volume of 100 μl of a solution of 100 mM β-aspartyl-arginine phosphate-buffered saline was added to a give a final concentration of 10 mM. Samples of 100 μl were taken at 0, 1, 2, 3, and 4 h after addition of the dipeptide. Immediately after each sample was taken, it was added to a 1.5-ml screw-cap polypropylene tube containing 100 μl of 10% SDS in water and 700 μl of demineralized water. This tube was immediately heated to 100° C. for 10 min to stop any further enzyme activity. The tube was then cooled to room temperature and 100 μl of 10% KCl solution were added. […] The samples were then diluted appropriately with demineralized water and analyzed by HPLC.

[10] = tested on: rat liver extract; conditions: β-aspartyl-glycine as a substrate, Dorer et al.; cited from earlier work
[11] = equimolar oral doses of free arginine (as arginine aspartate salt), FIG. 3

N=C(N)NCCC[C@H](N)C(=O)O [arginine, reference compound]
time for blood concentrations to return to baseline [1, 11]: ≤ 4 h | time of fast increase in blood concentration [1, 11]: two | effect of the 5-g dose on blood concentrations versus 2.5 g ([1]; oral free arginine (as arginine aspartate salt), FIG. 3): did not lead to substantially increased blood concentrations | oral amount beyond which arginine levels in blood do not increase [2]: 2.5 g

N=C(N)NCCC[C@H](NC(=O)C[C@H](N)C(=O)O)C(=O)O [β-aspartyl-arginine, β-L-aspartyl-L-arginine]
form in which the orally administered substance is taken up into the bloodstream ([1]; oral): uncleaved dipeptide form | period over which the concentration of the dipeptide in whole blood increased ([1]; oral 2.5 g or 5 g dipeptide in 400 ml water, fasted, three volunteers, FIG. 1): about six | time for which the dipeptide was still detectable in whole blood ([1]; oral 2.5 g or 5 g dipeptide, FIG. 1): 12 h | free arginine in blood after administration of the dipeptide ([1]; oral dipeptide alone): only detected at baseline levels | effect of doubling the oral dose on maximum concentration in whole blood ([1]; oral dose from 2.5 g to 5 g): approximately doubled | hydrolysis by arginase [3]: no significant difference to the start concentration | change of dipeptide concentration after clostripain treatment [4]: No significant difference | change of dipeptide concentration after chymotrypsin treatment [5]: No significant difference | change of dipeptide concentration after trypsin treatment [6]: No significant difference | change of dipeptide concentration after endoproteinase Arg-C treatment [7]: No significant difference | change of dipeptide concentration after proteinase N treatment [8]: No significant difference | cleavage by enzymes present in bovine liver ([9]; 0-4 h): is cleaved | hydrolysis activity of liver extract per protein ([9]; bovine liver extract): 0.065 U/mg protein | hydrolysis activity of liver extract ([9]; smaller timescale experiment, FIG. 8): 2.5 mg of dipeptide being hydrolyzed per gram of liver tissue per hour

N[C@@H](CC(=O)NCC(=O)O)C(=O)O [β-aspartyl-glycine]
hydrolysis activity of rat liver extract [10]: 0.028 U/mg
